One data set concerns the target recombinant MEN1 protein (Homo sapiens (Human), UniProt O00255). Description: Primary fluorescence polarization assay of MEN1 activity inhibition (MEN1 / MLL4-43 peptide interaction). The data set is classed as binding. The following applies: MEN1 10 nM, fluorescein-labeled MLL4-43 peptide 0.5 nM. The procedure: Compound activity was determined using recombinant MEN1 protein (Creativebiomart, Cat #MEN1-35H) and a custom fluorescein-labeled MLL4-43 peptide (Eton Bioscience Inc.). Interaction between MEN1 and MLL4-43 in the presence of compounds was determined by fluorescence polarization assay using a Microplate Reader ClarioStar Plus. The reaction was carried out in assay buffer (50 mM TRIS-HCl pH 7.4-7.6, 50 mM NaCl, 1 mM DTT, 0.1 mg/ml BSA). The compounds were dispensed on a 384 well Diamond Well Plate (Axigen, Cat #P-384-120SQ-C-S) using the Biomek FX liquid handling system at 100× solutions of compounds in DMSO. 2×MEN1 mix (final concentration of MEN1 10 nM) was prepared in Assay buffer and 10 μl of mixture per well was added into 384 w white Reaction plate with NBS (Corning, Cat #4513). 10 μl of Assay buffer w/o MEN1 was used for negative control. Plates were centrifuged for 1 min at 100 g. Next step the Compounds were added to Reaction plate using Biomek station via following steps: 3 μl of 100× compounds (in DMSO) were mixed thoroughly with 27 μl Assay Buffer, then 2 μl of this mixture was added to Reaction plate with 10 μl of MEN1 mix. Plates were centrifuged for 1 min at 100 g and incubated for 20 min at room temperature. Next 8 μL of MLL4-43 peptide per well was added to final concentration of MLL 0.5 nM. Plates were incubated for 1 hour at room temperature. Then fluorescence polarization was measured using Microplate Reader.

The next data set deals with MV4-11. Description: MV4-11 cellular growth inhibition assay (CellTiter-Glo). The data set is classed as cell-based. The following applies: Homo sapiens, 168 h, MV4-11 cells, 7 days of incubation. The protocol:
(§1) HEK293 (Institute of Cytology Russian Academy of Science), MV4-11 (ATCC, CRL-9591), MOLM-13 (AcceGen, ABC-TC517S) were seeded at a density of 500 cells per well (HEK293) and 2000 cells per well (MV4-11, MOLM-13) in a 384-well clear bottom plate (Greiner Cat #781090) in 45 μl total volume of DMEM (PanEco, Cat #C420, Russia) or RPMI (PanEco, Cat #C330, Russia) with 10% FBS (HyClone Cat #SV30160.03). HEK293 were allowed to adhere overnight at 37° C., 5% CO2. 500× compounds solutions in DMSO (Sigma Cat #D2650) were prepared into Cmpnds plate (Diamond Well Plate, Axigen, Cat #P-384-120SQ-C-S) and DMSO only control was included. 1 μl of 500× compounds (Cmpnds plate) was added to 49 μl of culture medium into Dilution plate (Diamond Well Plate, Axigen, Cat #P-384-120SQ-C-S), mixed and then 5 μl of 10× compounds solutions were transferred to cells followed by centrifugation at 100 g for 1 min. Final DMSO concentration was 0.2%. After 3 days of incubation, 10 μl of 1× compounds were added to cells. After 7 days of incubation, 12 μl of CellTiter-Glo (Promega, CAT #G7572) were added to the cells, plate was centrifuged at 100 g for 1 min and luminescence signal was measured using Microplate Reader (CLARIOStar).
A general note: In ATP-based viability assays light output follows the ATP content of the culture.

A further data set has as its system MOLM-13. Description: MOLM-13 cellular growth inhibition assay (CellTiter-Glo). Type of data set: cell-based. The conditions noted are these: Homo sapiens, 168 h, MOLM-13 cells, 7 days of incubation. The protocol:
as §1

The nature of data set [1]: HEK293 cellular growth inhibition assay (CellTiter-Glo). The data set is classed as cell-based. The conditions noted are these: human, HEK293 cells, 7 days of incubation. The procedure:
as §1

In general, EC50 refers to the concentration giving half of the maximal effect. One may read the CC50 as the concentration giving 50% cytotoxicity. A low value points to harm at low concentration.

Sequence of recombinant MEN1 protein (O00255 whole entry): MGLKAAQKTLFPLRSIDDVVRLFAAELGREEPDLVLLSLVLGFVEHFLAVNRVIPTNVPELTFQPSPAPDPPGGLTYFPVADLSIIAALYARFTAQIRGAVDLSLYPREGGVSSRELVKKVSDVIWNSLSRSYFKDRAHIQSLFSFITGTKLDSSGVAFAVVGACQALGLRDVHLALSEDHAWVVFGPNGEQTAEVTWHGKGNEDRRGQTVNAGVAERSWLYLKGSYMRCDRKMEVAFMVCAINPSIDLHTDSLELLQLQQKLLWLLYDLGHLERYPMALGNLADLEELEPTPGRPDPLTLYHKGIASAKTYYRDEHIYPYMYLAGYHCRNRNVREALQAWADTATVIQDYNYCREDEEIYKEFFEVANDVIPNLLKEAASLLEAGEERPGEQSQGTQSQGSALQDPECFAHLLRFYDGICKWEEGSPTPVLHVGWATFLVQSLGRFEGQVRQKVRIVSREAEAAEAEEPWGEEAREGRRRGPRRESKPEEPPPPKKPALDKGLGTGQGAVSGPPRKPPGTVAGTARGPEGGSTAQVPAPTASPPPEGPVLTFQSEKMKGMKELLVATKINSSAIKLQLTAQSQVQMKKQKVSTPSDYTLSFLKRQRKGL

Turning to `Cc1c(CN2CCC3(CC2)CN(c2ncnc4ccc(CC(F)(F)F)cc24)C3)ccc2c1cc(C#N)n2CC1CN(S(C)(=O)=O)CCO1` (centres unmarked) [Compound 9], the EC50 on recombinant MEN1 protein was 75 to 500 nM.
Same read-out and setting: the result for `Cc1c(CN2CCC3(CC2)CN(c2ncnc4ccc(CC(F)(F)F)cc24)C3)ccc2c1cc(C#N)n2CC1CN(CC(C)C)C(=O)CO1` (centres unmarked) [Compound 31, 1-[(4-Isobutyl-5-oxomorpholin-2-yl)methyl]-4-methyl-5-({2-[6-(2,2,2-trifluoroethyl)quinazolin-4-yl]-2,7-diazaspiro[3.5]non-7-yl}methyl)-1H-indole-2-carbonitrile] reads 75 to 500 nM.
On to `Cc1c(CN2CCC3(CC2)CN(c2cnnc4ccc(CC(F)(F)F)cc24)C3)ccc2c1cc(C#N)n2CC(C)N1CCN(S(C)(=O)=O)CC1` (centres unmarked) [Compound 80, 4-Methyl-1-[2-(4-methylsulfonylpiperazin-1-yl)propyl]-5-[[2-[6-(2,2,2-trifluoroethyl)cinnolin-4-yl]-2,7-diazaspiro[3.5]nonan-7-yl]methyl]indole-2-carbonitrile], for which, at recombinant MEN1 protein, the EC50 is at most 75 nM. Further, the results for the CC50 in the data set on MV4-11 and in the data set on MOLM-13 were 100 to 500 nM and 1000 to 5000 nM, respectively. Further, in data set [1], the 50% cytotoxic concentration (CC50) at 7 days was in the range of 5000 to 10000 nM.
Take `CCS(=O)(=O)N[C@H]1CC[C@H](Cn2c(C#N)cc3c(C)c(CN4CCC5(CC4)CN(c4ncnc6ccc(CC(F)(F)F)cc46)C5)ccc32)CC1` [Compound 41]: the EC50 at recombinant MEN1 protein lay in the range of 75 to 500 nM.
Turning to `Cc1c(CN2CCC3(CC2)CN(c2ncnc4ccc(CC(F)(F)F)cc24)C3)ccc2c1cc(C#N)n2C[C@@H]1CCC(=O)N[C@H]1c1ccccc1` [Compound 100, 4-Methyl-1-{[(2R,3S)-6-oxo-2-phenylpiperidin-3-yl]methyl}-5-({2-[6-(2,2,2-trifluoroethyl)quinazolin-4-yl]-2,7-diazaspiro[3.5]non-7-yl}methyl)-1H-indole-2-carbonitrile], the EC50 at recombinant MEN1 protein lay within 75 to 500 nM.
On to `Cc1c(CN2CCC3(CC2)CN(c2ncnc4ccc(CC(F)(F)F)cc24)C3)ccc2c1cc(C#N)n2CCCCN1CCN(S(C)(=O)=O)CC1` [Compound 44, 4-Methyl-1-{4-[4-(methylsulfonyl)piperazin-1-yl]butyl}-5-({2-[6-(2,2,2-trifluoroethyl)quinazolin-4-yl]-2,7-diazaspiro[3.5]non-7-yl}methyl)-1H-indole-2-carbonitrile], for which the CC50 in the data set on MV4-11 is 1000 to 5000 nM; in the data set on MOLM-13, above 5000 nM. In data set [1], this compound registered a cytotoxic concentration (CC50) at 7 days of 2000 to 5000 nM.
For the compound `Cc1c(CN2CCC3(CC2)CN(c2ncnc4ccc(CC(F)(F)F)cc24)C3)ccc2c1cc(C#N)n2CC1CN(C)C(=O)CN1` (centres unmarked) [Compound 46, 4-methyl-1-[(4-methyl-5-oxo-piperazin-2-yl)methyl]-5-[[2-[6-(2,2,2-trifluoroethyl)quinazolin-4-yl]-2,7-diazaspiro[3.5]nonan-7-yl]methyl]indole-2-carbonitrile], the EC50 on recombinant MEN1 protein lay in the range of 1000 to 5000 nM.
On to `CN(C)C/C=C/C(=O)N1CCN(CCn2c(C#N)cc3cc(CN4CCC5(CC4)CN(c4ncnc6ccc(CC(F)(F)F)cc46)C5)ccc32)CC1` [Compound 99], for which the CC50 with MV4-11 and with MOLM-13 was 1000 to 5000 nM throughout. The compound also showed a CC50 at 7 days in data set [1] of at most 2000 nM.
For the compound `CCS(=O)(=O)N1CCCN(C(C)Cn2c(C#N)cc3c(C)c(CN4CCC5(CC4)CN(c4ncnc6ccc(CC(F)(F)F)cc46)C5)ccc32)CC1` (centres unmarked) [Compound 53, 1-[2-(4-Ethylsulfonyl-1,4-diazepan-1-yl)propyl]-4-methyl-5-[[2-[6-(2,2,2-trifluoroethyl)quinazolin-4-yl]-2,7-diazaspiro[3.5]nonan-7-yl]methyl]indole-2-carbonitrile], at recombinant MEN1 protein, the EC50 was at most 75 nM. Moreover, the results for the CC50 in the data set with MV4-11 and with MOLM-13 were at most 100 nM and 100 to 500 nM, respectively. This compound also yielded a CC50 at 7 days in data set [1] of 5000 to 10000 nM.
In the case of `CCS(=O)(=O)N1CCN([C@H](C)Cn2c(C#N)cc3c(C)c(CN4CCC5(CC4)CN(c4ncnc6ccc(CC(F)(F)F)cc46)C5)ccc32)C[C@@H]1C` [Compound 25, 1-[(2R)-2-[(3S)-4-ethylsulfonyl-3-methyl-piperazin-1-yl]propyl]-4-methyl-5-[[2-[6-(2,2,2-trifluoroethyl)quinazolin-4-yl]-2,7-diazaspiro[3.5]nonan-7-yl]methyl]indole-2-carbonitrile], the CC50 in the data set with MV4-11 lay in the range of 100 to 500 nM; in the data set with MOLM-13 it was 500 to 1000 nM. The compound further had a CC50 at 7 days in data set [1] of 2000 to 5000 nM.
On to `Cc1c(CN2CCC3(CC2)CN(c2ncnc4ccc(CC(F)(F)F)cc24)C3)ccc2c1cc(C#N)n2CC1CNC(=O)C1` (centres unmarked) [Compound 51, 4-Methyl-1-[(5-oxopyrrolidin-3-yl)methyl]-5-({2-[6-(2,2,2-trifluoroethyl)quinazolin-4-yl]-2,7-diazaspiro[3.5]non-7-yl}methyl)-1H-indole-2-carbonitrile], for which the figures for the CC50 with MV4-11 and in the data set with MOLM-13 were 100 to 500 nM and 1000 to 5000 nM, respectively. Further, the CC50 at 7 days in data set [1] was 2000 to 5000 nM.
In the case of `Cc1c(CN2CCC3(CC2)CN(c2ncnc4ccc(CC(F)(F)F)cc24)C3)ccc2c1cc(C#N)n2CC1CCNC(=O)CC1` (centres unmarked) [Compound 5, 4-Methyl-1-[(7-oxoazepan-4-yl)methyl]-5-[[2-[6-(2,2,2-trifluoroethyl)quinazolin-4-yl]-2,7-diazaspiro[3.5]nonan-7-yl]methyl]indole-2-carbonitrile], the figures for the 50% cytotoxic concentration (CC50) in the data set on MV4-11 and in the data set with MOLM-13 were 100 to 500 nM and 500 to 1000 nM, respectively. The compound further came in with a CC50 at 7 days in data set [1] of at most 2000 nM.
Regarding `C=CC(=O)N1CCN(C(C)Cn2c(C#N)cc3c(C)c(CN4CCC5(CC4)CN(c4ncnc6ccc(CC(F)(F)F)cc46)C5)ccc32)CC1` (centres unmarked) [Compound 63, 1-[2-(4-Acryloylpiperazin-1-yl)propyl]-4-methyl-5-({2-[6-(2,2,2-trifluoroethyl)quinazolin-4-yl]-2,7-diazaspiro[3.5]non-7-yl}methyl)-1H-indole-2-carbonitrile], the CC50 in the data set with MV4-11 and in the data set on MOLM-13 was 100 to 500 nM each time. The same compound registered a CC50 at 7 days in data set [1] of 2000 to 5000 nM.
As to `Cc1c(CN2CCC3(CC2)CN(c2nncc4ccc(CC(F)(F)F)cc24)C3)ccc2c1cc(C#N)n2CC(C)N1CCN(S(C)(=O)=O)CC1` (centres unmarked) [Compound 79, 4-Methyl-1-[2-(4-methylsulfonylpiperazin-1-yl)propyl]-5-[[2-[7-(2,2,2-trifluoroethyl)phthalazin-1-yl]-2,7-diazaspiro[3.5]nonan-7-yl]methyl]indole-2-carbonitrile], the results for the CC50 with MV4-11 and in the data set with MOLM-13 were 500 to 1000 nM and 1000 to 5000 nM, respectively. The same compound returned a CC50 at 7 days in data set [1] of 5000 to 10000 nM.
With `Cc1c(CN2CCC3(CC2)CN(c2ncnc4ccc(CC(F)(F)F)cc24)C3)ccc2c1cc(C#N)n2CC1CNC(=O)N1` (centres unmarked) [Compound 6, 4-Methyl-1-[(2-oxoimidazolidin-4-yl)methyl]-5-({2-[6-(2,2,2-trifluoroethyl)quinazolin-4-yl]-2,7-diazaspiro[3.5]non-7-yl}methyl)-1H-indole-2-carbonitrile], on recombinant MEN1 protein, the EC50 fell in the range of 1000 to 5000 nM.
As to `Cc1c(CN2CCC3(CC2)CN(c2ncnc4ccc(CC(F)(F)F)cc24)C3)ccc2c1cc(C#N)n2CC(C)N1CCNC(=O)C1` (centres unmarked) [Compound 93, 4-Methyl-1-[2-(3-oxopiperazin-1-yl)propyl]-5-({2-[6-(2,2,2-trifluoroethyl)quinazolin-4-yl]-2,7-diazaspiro[3.5]non-7-yl}methyl)-1H-indole-2-carbonitrile], the CC50 was at most 100 nM in the data set on MV4-11 and 500 to 1000 nM in the data set on MOLM-13. In data set [1], the CC50 at 7 days fell in the range of 2000 to 5000 nM.

The values above are taken from US20250163061A1 (Bala Therapeutics, Inc., priority 2021, published 2025).
